Data from ChEMBL document CHEMBL2401615, “Peptide backbone replacement of hepatitis C virus NS3 serine protease C-terminal cleavage product analogs: discovery of potent succinamide inhibitors” (Bioorg Med Chem Lett, 2013).
Values after ≈ are worked out from the molar mass of the structure shown.

Experiments:
[1] = Inhibition of Hepatitis C virus NS3 protease; set-up: species or system Hepacivirus hominis
Hepatitis C virus [2] = assay: Antiviral activity against Hepatitis C virus; format: functional, organism-based, Hepacivirus hominis
[3] = Permeability across basolateral to apical side in human Caco2 cells; format: ADME, cell-based; conditions: Caco-2, read-out: permeability
[4] = Volume of distribution at steady state in rat at 2 mg/kg, iv; format: ADME, organism-based; set-up: dose 2 mg/kg, route intravenous; conditions: in vivo, read-out: Vdss
Rattus norvegicus [5] = assay: AUC (0 to infinity) in rat at 5 mg/kg, po; format: ADME, organism-based, Plasma; set-up: time infinity, dose 5 mg/kg, route oral; conditions: in vivo
[6] = Half life in monkey liver microsomes; format: ADME, Macaca mulatta, Microsome; conditions: rhesus monkey
[7] = Half life in rat at 2 mg/kg, iv; format: ADME, organism-based; set-up: dose 2 mg/kg, route intravenous; conditions: in vivo
[8] = Bioavailability in rat at 2 mg/kg, […]; format: ADME, organism-based; conditions: in vivo
[9] = Permeability across apical to basolateral side in human Caco2 cells; format: ADME, cell-based; conditions: Caco-2, read-out: permeability
[10] = Half life in dog liver microsomes; format: ADME, Canis lupus familiaris, Microsome
[11] = Clearance in rat at 2 mg/kg, iv; format: ADME, organism-based; set-up: dose 2 mg/kg, route intravenous; conditions: in vivo
[12] = Half life in rat liver microsomes; format: ADME, Microsome
[13] = Half life in human liver microsomes; format: ADME, Microsome
Rattus norvegicus [14] = assay: Cmax in rat at 5 mg/kg, po; format: ADME, organism-based; set-up: dose 5 mg/kg, route oral; conditions: in vivo
Hepatitis C virus [15] = assay: Antiviral activity against Hepatitis C virus genotype 1b infected in human Huh-9-13 cells by replicon assay; format: functional, organism-based, Hepacivirus hominis
[16] = Plasma concentration in rat at 5 mg/kg measured at 1 hr; format: ADME, organism-based; set-up: dose 5 mg/kg
[17] = Solubility of the compound at pH 7.2; format: physicochemical; conditions: buffer

| IC50 [1] [nM] | EC50 (Hepatitis C virus [2]) [nM] | Papp A→B [9] [×10⁻⁶ cm/s] | half-life [13] [h] | SMILES | further results |
| --- | --- | --- | --- | --- | --- |
| 140 | – | – | – | C=C[C@@H]1C[C@]1(NC(=O)[C@@H]1C[C@@H](Oc2cc(-c3csc(NC(C)=O)n3)nc3cc(OC)ccc23)CN1C(=O)[C@@H](OC(=O)NC(C)(C)C)C(C)(C)C)C(=O)O | – |
| 53 | – | – | – | C=C[C@@H]1C[C@]1(NC(=O)[C@@H]1C[C@@H](Oc2cc(-c3csc(NC(C)=O)n3)nc3cc(OC)ccc23)CN1C(=O)[C@@H](CC(=O)NC(C)(C)C)C(C)(C)C)C(=O)O | – |
| 0.8 | 6.5 | 3.9 | > 5 | C=C[C@@H]1C[C@]1(NC(=O)[C@@H]1C[C@@H](Oc2cc(OCC)nc3c(Cl)cccc23)CN1C(=O)[C@@H](CC(=O)Nc1ccccc1)C(C)(C)C)C(=O)NS(=O)(=O)C1CC1 | solubility [17]: 56 mg/mL (≈ 71.8 mM); half-life [12]: 2.67 h |
| 2.6 | – | – | – | C=C[C@@H]1C[C@]1(NC(=O)[C@@H]1C[C@@H](Oc2cc(-c3csc(NC(C)=O)n3)nc3cc(OC)ccc23)CN1C(=O)[C@@H](NC(=O)NC(C)(C)C)C(C)(C)C)C(=O)O | – |

Second part, the compound before the results:

| SMILES | IC50 [1] [nM] | EC50 (Hepatitis C virus [2]) [nM] | Papp A→B [9] [×10⁻⁶ cm/s] | half-life [13] [h] | further results |
| --- | --- | --- | --- | --- | --- |
| C=C[C@@H]1C[C@]1(NC(=O)[C@@H]1C[C@@H](Oc2cc(-c3csc(NC(C)=O)n3)nc3cc(OC)ccc23)CN1C(=O)[C@@H](CC(=O)Nc1ccccc1)C(C)(C)C)C(=O)O | 13 | – | – | – | – |
| C=C[C@@H]1C[C@]1(NC(=O)[C@@H]1C[C@@H](Oc2cc(-c3csc(NC(C)=O)n3)nc3cc(OC)ccc23)CN1C(=O)[C@@H](CC(=O)NC1CCCC1)C(C)(C)C)C(=O)O | 23 | – | – | – | – |
| C=C[C@@H]1C[C@]1(NC(=O)[C@@H]1C[C@@H](Oc2nccc3cc(OC)ccc23)CN1C(=O)[C@@H](CC(=O)Nc1ccccc1)C(C)(C)C)C(=O)NS(=O)(=O)C1CC1 | 1.7 | 64 | – | – | – |
| C=C[C@@H]1C[C@]1(NC(=O)[C@@H]1C[C@@H](Oc2nccc3cc(OC)ccc23)CN1C(=O)[C@@H](CC(=O)NC(C)(C)C)C(C)(C)C)C(=O)NS(=O)(=O)C1CC1 | 8.7 | 130 | – | – | – |
| C=C[C@@H]1C[C@]1(NC(=O)[C@@H]1C[C@@H](Oc2cc(-c3csc(NC(C)C)n3)nc3c(Br)c(OC)ccc23)CN1C(=O)[C@@H](CC(=O)NC1CCCC1)C(C)(C)C)C(=O)O | 10 | 3.5 | 8 | 3.45 | Papp B→A [3]: 10 ×10⁻⁶ cm/s; Vd [4]: 1.3 L/kg; AUC (Rattus norvegicus [5]): 2.1 µM·h; half-life [6]: 0.867 h; half-life [7]: 1.4 h; bioavailability [8]: 47%; half-life [10]: 2.55 h; clearance [11]: 22 mL/min/kg; half-life [12]: 3.13 h; Cmax (Rattus norvegicus [14]): 850 nM |
| C=C[C@@H]1C[C@]1(NC(=O)[C@@H]1C[C@@H](Oc2nccc3cc(OC)ccc23)CN1C(=O)[C@@H](NC(=O)OC(C)(C)C)C(C)(C)C)C(=O)NS(=O)(=O)C1CC1 | 2 | 3 | – | – | – |
| C=C[C@@H]1C[C@]1(NC(=O)[C@@H]1C[C@@H](Oc2cc(-c3ccccc3)nc3cc(OC)ccc23)CN1C(=O)[C@@H](CC(=O)N1CCCCC1)C(C)(C)C)C(=O)NS(=O)(=O)C1CC1 [SOVAPREVIR] | – | – | – | – | EC50 (Hepatitis C virus [15]): 11 nM |
| C=C[C@@H]1C[C@]1(NC(=O)[C@@H]1C[C@@H](Oc2cc(-c3csc(NC(C)C)n3)nc3c(Br)c(OC)ccc23)CN1C(=O)[C@@H](NC(=O)OC1CCCC1)C(C)(C)C)C(=O)O | 8.9 | 6.8 | 17 | > 5 | Papp B→A [3]: 2 ×10⁻⁶ cm/s; half-life [6]: 3.17 h; half-life [10]: > 5 h; half-life [12]: 3.5 h |
| C=C[C@@H]1C[C@]1(NC(=O)[C@@H]1C[C@@H](Oc2cc(OCC)nc3c(Br)c(OC)ccc23)CN1C(=O)[C@@H](CC(=O)Nc1ccccc1)C(C)(C)C)C(=O)NS(=O)(=O)C1CC1 | 0.4 | 2.5 | 2.4 | 1.52 | concentration at 1 h [16]: 100 nM; solubility [17]: 45 mg/mL (≈ 52.6 mM); half-life [12]: > 5 h |
| C=C[C@@H]1C[C@]1(NC(=O)[C@@H]1C[C@@H](Oc2cc(OCC)nc3c(Br)c(OC)ccc23)CN1C(=O)[C@@H](CC(=O)NC(C)(C)C)C(C)(C)C)C(=O)NS(=O)(=O)C1CC1 | 0.8 | 8.4 | 7.1 | > 5 | solubility [17]: 83 mg/mL (≈ 99.4 mM) |
| C=C[C@@H]1C[C@]1(NC(=O)[C@@H]1C[C@@H](Oc2cc(OCC)nc3c(Cl)cccc23)CN1C(=O)[C@@H](CC(=O)NC(C)(C)C)C(C)(C)C)C(=O)NS(=O)(=O)C1CC1 | 0.9 | 69 | 3 | 1.58 | solubility [17]: 144 mg/mL (≈ 189 mM) |
| C=C[C@@H]1C[C@]1(NC(=O)[C@@H]1C[C@@H](Oc2cc(-c3csc(NC(C)=O)n3)nc3cc(OC)ccc23)CN1C(=O)[C@@H](NC(=O)OC(C)(C)C)C(C)(C)C)C(=O)O | 13 | – | – | – | – |
